Experimental data from PMC5031696, “Synthesis, Biodistribution and In vitro Evaluation of Brain Permeable High Affinity Type 2 Cannabinoid Receptor Agonists [^11C]MA2 and [^18F]MA3” (Frontiers in Neuroscience, 2016).
Where two headings read alike, the source gives them in different places.

Experiments:
hCB2 [1] = target: T1, hCB2 (Homo sapiens, UniProt P34972); test: functional cAMP assay, hCB2; format: cell-based; conditions: for functional behaviour in cAMP assay: hCB2
T1 construct: host or cells: CHO-K1 beta-arrestin cells
T1 sequence (P34972 whole entry): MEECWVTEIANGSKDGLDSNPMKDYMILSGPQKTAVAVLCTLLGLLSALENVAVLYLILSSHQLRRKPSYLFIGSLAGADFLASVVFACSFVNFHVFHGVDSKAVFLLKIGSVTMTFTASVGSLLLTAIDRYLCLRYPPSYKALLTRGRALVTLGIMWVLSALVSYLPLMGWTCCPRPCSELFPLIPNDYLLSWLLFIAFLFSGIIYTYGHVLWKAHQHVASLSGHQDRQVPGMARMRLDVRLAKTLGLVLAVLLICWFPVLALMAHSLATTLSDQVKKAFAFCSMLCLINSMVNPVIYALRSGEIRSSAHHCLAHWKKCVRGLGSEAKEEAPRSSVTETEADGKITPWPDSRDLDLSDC
Protocol: (§1) CHO-K1 beta-arrestin cells (DiscoveRx, Fremont, CA) expressing hCB2, mouse CB2 (mCB2), and human CB1 (hCB1) were cultured in F-12 Nutrient Mixture (HAM) supplemented with 10% fetal bovine serum (FBS), 300 μg/mL hygromycin and 800 μg/mL geneticin (G418). Cells were incubated in a humidified atmosphere at 37°C with 5% CO2.
(§2) cAMP was measured using cAMP-Nano-TRF detection kit (Roche Diagnostics, Penzberg, Germany). Cells were seeded 17–24 h prior to the experiment 3 × 10^4 cells per well in a black 96-well plate with flat clear bottom (Corning, Wiesbaden, Germany) in growth medium and incubated in 5% CO2 at 37°C in a humidified incubator. The growth medium was exchanged with Krebs Ringer bicarbonate buffer with 1 mmol/L 3-isobutyl-1-methylxanthine (IBMX), 0.1% fatty acid-free bovine serum albumin (BSA) and incubated at 30°C for 60 min. Agonist was added to a final assay volume of 100 μL and the mixture was incubated for 30 min at 30°C. The assay was stopped by the addition of 50 μL 3x lysis reagent and shaken for 2 h at room temperature. The time-resolved energy transfer was measured using an LF502 Nanoscan FLT (IOM, Berlin, Germany), equipped with a laser as excitation source. cAMP content was determined from the function of a standard curve spanning from 10 to 0.13 nmol/L cAMP.

mCB2 [2] = target: T2, mCB2 (Mus musculus, UniProt P47936); test: functional cAMP assay, mCB2; format: cell-based
T2 construct: host or cells: CHO-K1 beta-arrestin cells
T2 sequence (P47936 whole entry): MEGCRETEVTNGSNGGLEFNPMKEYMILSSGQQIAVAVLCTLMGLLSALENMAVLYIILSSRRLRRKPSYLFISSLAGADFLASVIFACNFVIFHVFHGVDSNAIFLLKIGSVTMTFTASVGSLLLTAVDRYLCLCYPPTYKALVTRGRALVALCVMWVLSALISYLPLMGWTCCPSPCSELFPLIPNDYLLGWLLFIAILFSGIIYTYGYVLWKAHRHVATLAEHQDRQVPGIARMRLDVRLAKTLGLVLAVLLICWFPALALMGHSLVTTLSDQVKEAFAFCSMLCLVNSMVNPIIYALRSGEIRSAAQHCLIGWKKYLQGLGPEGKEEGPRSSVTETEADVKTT
Protocol: as §1, §2

hCB1 [3] = target: T3, hCB1 (Homo sapiens, UniProt P21554); test: functional cAMP assay, hCB1 versus hCB2; format: cell-based; conditions: cAMP assays
T3 construct: host or cells: CHO-K1 beta-arrestin cells
T3 sequence (P21554 whole entry): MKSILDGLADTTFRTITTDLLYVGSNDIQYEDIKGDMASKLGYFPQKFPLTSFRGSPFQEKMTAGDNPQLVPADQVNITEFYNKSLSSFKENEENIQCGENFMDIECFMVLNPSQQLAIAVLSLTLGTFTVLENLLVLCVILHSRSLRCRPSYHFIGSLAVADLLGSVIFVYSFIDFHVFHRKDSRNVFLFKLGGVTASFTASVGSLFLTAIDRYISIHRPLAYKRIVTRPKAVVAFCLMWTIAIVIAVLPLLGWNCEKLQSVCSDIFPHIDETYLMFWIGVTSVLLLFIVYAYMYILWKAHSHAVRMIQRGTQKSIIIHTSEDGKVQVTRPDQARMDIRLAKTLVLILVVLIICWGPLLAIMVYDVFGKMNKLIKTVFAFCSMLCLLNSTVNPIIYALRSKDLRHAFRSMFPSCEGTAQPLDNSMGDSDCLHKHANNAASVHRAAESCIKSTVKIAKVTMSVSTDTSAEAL
Protocol: as §1, §2

hCB2 [4] = target: T1, hCB2; test: radioligand binding assay with [^3H]CP55940, hCB2
Protocol: as §1
(§3) Stably transfected cells were treated for 24 h with 5 mM butyrate in growth medium before harvesting, followed by homogenization in 15 mmol/L Hepes, 0.3 mmol/L EDTA, 1 mmol/L EGTA, 2 mmol/L MgCl2, complete EDTA-free protease inhibitor (Roche Applied Science, Rotkreuz, Switzerland), pH 7.4 using a glass potter and centrifugation at 47,800 g at 4°C for 30 min. The pellet was then rehomogenized twice in the same buffer and centrifuged (47,800 g, 4°C, 30 min). The final pellet was then resuspended in 75 mmol/L Tris, 0.3 mmol/L EDTA, 1 mmol/L EGTA, 12.5 mmol/L MgCl2, 250 mmol/L sucrose, pH 7.4 at a protein concentration of 1 to 3 mg/mL, aliquoted, frozen on dry ice and stored at −80°C. Saturation binding was performed with 0.05 to 2.6 nM [^3H]CP55940 (Perkin Elmer) and 1.0 μg of membrane protein. CP55940 (10 μM) was used to define non-specific binding. More than 95% of the total binding signal was specific. Assay buffer consisted of 50 mmol/L Tris-HCl, 5 mmol/L MgCl2, 2.5 mmol/L EGTA, and 0.1% fatty acid-free BSA, pH 7.4. Assays were initiated by addition of membranes in a final volume of 250 μL/well. Mixtures were incubated for 3 h at room temperature and then vacuum filtered and rinsed with wash buffer (50 mmol/L Tris-HCl, 5 mmol/L MgCl2, 2.5 mmol/L EGTA, and 0.5% fatty acid-free BSA, pH 7.4) on a Filtermate cell harvester through Packard GF/B filters presoaked in 0.3% polyethylenimine.
(§4) For competition binding, membrane preparations were incubated with 0.3 nM [^3H]CP55940 in the presence or absence of increasing concentrations of ligands for 60 min at 30°C in a final volume of 0.2 mL of 50 mmol/L Tris-HCl, 5 mmol/L MgCl2, 2.5 mmol/L EGTA, 0.1% fatty acid-free BSA, and 1% DMSO, pH 7.4, buffer, gently shaking. Non-specific binding was defined with 10 μM CP55940. All binding reactions were terminated by vacuum filtration onto 0.5% polyethylenimine presoaked GF/B filter plates (Packard) followed by seven brief washes with 2 mL of ice-cold binding buffer containing 0.5% fatty acid-free BSA. Plates were dried at 50°C for 1 h and liquid scintillation counting was used to determine bound radiolabel. IC50 values and Hill slopes were determined by a four parameter logistic model using ActivityBase (ID Business Solution, Guilford, UK). pKi values were determined by the generalized Cheng-Prusoff equation (Yung-Chi and Prusoff, [1973]).

hCB1 [5] = target: T3, hCB1; test: radioligand binding assay with [^3H]CP55940, hCB1; conditions: for Ki ratio hCB1/hCB2: selectivity
Protocol: as §1, §3, §4

mCB2 [6] = target: T2, mCB2; test: radioligand binding assay with [^3H]CP55940, mCB2
Protocol: as §1, §3, §4

[7] = biodistribution studies in male NMRI mice; format: in vivo, mouse; conditions: mouse, in vivo; for % ID bladder + urine / % ID blood / % ID bone / % ID heart / % ID intestines / % ID kidneys / % ID liver / % ID lungs / % ID pancreas / % ID spleen / % ID stomach / SUV blood / SUV bone / SUV brain / SUV heart / SUV kidneys / SUV liver / SUV lungs / SUV pancreas / SUV spleen / % ID brain: iv
Protocol: The tissue distribution and kinetics of [^11C]MA2 and [^18F]MA3 were studied in male NMRI mice at 2, 10, 30, and 60 min post injection of the tracer. The results of the biodistribution studies are presented in Table 1 ([^11C]MA2) and Table 2 ([^18F]MA3) as percentage of injected dose (% ID) and standard uptake value (SUV).
The biodistribution of [^11C]MA2 and [^18F]MA3 was studied in normal male Naval Medical Research Institute (NMRI) mice. A solution of HPLC-purified [^11C]MA2 or [^18F]MA3 was diluted with saline to obtain an ethanol concentration < 10%. Mice were anesthetized with isoflurane (2% in oxygen) and injected intravenously (i.v.) with [^11C]MA2 (~ 9.25 MBq) or [^18F]MA3 (~ 0.92 MBq) via a lateral tail vein. The mice were sacrificed by decapitation at 2, and 60 min post injection (for [^11C]MA2, n = 4) and at 2, 10, 30, or 60 min post injection (for [^18F]MA3, n = 3 or 4 per time point) and dissected. Blood, organs, and other body parts were collected in tared tubes and the radioactivity in each tube was measured using an automated gamma counter. The tubes containing selected organs and blood were weighed. For calculation of total radioactivity in blood, blood mass was assumed to be 7% of the body mass (Fritzberg et al., [1982]). Quantitative data are expressed as mean ± standard deviation (SD). Means were compared using an unpaired two-tailed student t-test. Values were considered statistically significant for P ≤ 0.05.

## Fc1ccc(-c2noc(CCCNc3cnc4ccc(OC(F)(F)F)cc4c3)n2)c(Cl)c1 [Compound 12, reference compound]
hCB2 [1]; CHO-K1 cells expressing hCB2
  hCB2 cAMP % eff (efficacy): 100%
hCB2 [1]; CHO-K1 cells expressing hCB2, read-out: hCB2 cAMP EC50
  EC50: 0.15 nM
hCB2 [1]
  functional behaviour in cAMP assay: agonists
mCB2 [2]; CHO-K1 cells expressing mCB2
  mCB2 cAMP % eff (efficacy): 100%
mCB2 [2]; CHO-K1 cells expressing mCB2, read-out: mCB2 cAMP EC50
  EC50: 0.18 nM
hCB1 [3]
  EC50 ratio hCB1/hCB2: 1300
hCB2 [4]; competition with [^3H]CP55940, read-out: hCB2 Ki
  Ki: 2.8 nM
hCB1 [5]; competition with [^3H]CP55940, read-out: hCB1 Ki
  Ki: 568 nM
hCB1 [5]
  Ki ratio hCB1/hCB2: 202
mCB2 [6]; competition with [^3H]CP55940, read-out: mCB2 Ki
  Ki: 4.6 nM

## COc1ccc2ncc(NCCCc3nc(-c4ccc(F)cc4Cl)no3)cc2c1 [MA2, N-(3-(3-(2-chloro-4-fluorophenyl)-1,2,4-oxadiazol-5-yl)propyl)-6-methoxyquinolin-3-amine]
hCB2 [1]
  EC50: 3 nM
  functional behaviour in cAMP assay: agonists
hCB2 [1]; CHO-K1 cells expressing hCB2
  hCB2 cAMP % eff (efficacy): 101%
mCB2 [2]
  EC50: 2 nM
mCB2 [2]; CHO-K1 cells expressing mCB2
  mCB2 cAMP % eff (efficacy): 100%
hCB1 [3]
  EC50 ratio hCB1/hCB2: 430
hCB2 [4]
  Ki: 87 nM
hCB1 [5]
  Ki: 1610 nM
  Ki ratio hCB1/hCB2: 19
mCB2 [6]
  Ki: 241 nM

## Fc1ccc(-c2noc(CCCNc3cnc4ccc(OCC[18F])cc4c3)n2)c(Cl)c1 [[^18F]MA3]
[7]; male, NMRI
  blood % ID 2 min/60 min ratio: 5.2
  brain % ID 2 min/60 min ratio: 9.2
[7]; male, NMRI, 2 min
  % ID bladder + urine: 0.2 ± 0.2 % ID
  % ID blood: 5.4 ± 0.4 % ID
  % ID bone: 5.3 ± 1.2 % ID
  % ID heart: 1.2 ± 0.1 % ID
  % ID intestines: 9.4 ± 3.9 % ID
  % ID kidneys: 9.0 ± 1.2 % ID
  % ID liver: 31.4 ± 8.4 % ID
  % ID lungs: 1.2 ± 0.3 % ID
  % ID pancreas: 1.4 ± 0.3 % ID
  % ID spleen: 0.4 ± 0.1 % ID
  % ID stomach: 1.4 ± 0.2 % ID
  SUV blood: 0.8 ± 0.1
  SUV bone: 0.4 ± 0.1
  SUV brain: 1.1 ± 0.1
  SUV heart: 3.4 ± 0.3
  SUV kidneys: 5.4 ± 0.4
  SUV liver: 7.2 ± 2.0
  SUV lungs: 2.8 ± 0.7
  SUV pancreas: 3.0 ± 0.5
  SUV spleen: 5.1 ± 0.6
[7]; male, NMRI, 10 min
  % ID bladder + urine: 0.4 ± 0.0 % ID
  % ID blood: 2.2 ± 0.3 % ID
  % ID bone: 3.5 ± 0.2 % ID
  % ID brain: 1.0 ± 0.1 % ID
  % ID heart: 0.3 ± 0.0 % ID
  % ID intestines: 30.8 ± 6.1 % ID
  % ID kidneys: 1.6 ± 0.2 % ID
  % ID liver: 26.1 ± 3.4 % ID
  % ID lungs: 0.5 ± 0.0 % ID
  % ID pancreas: 0.4 ± 0.1 % ID
  % ID spleen: 0.3 ± 0.1 % ID
  % ID stomach: 0.5 ± 0.0 % ID
  SUV blood: 0.3 ± 0.0
  SUV bone: 0.3 ± 0.0
  SUV brain: 0.5 ± 0.0
  SUV heart: 0.6 ± 0.0
  SUV kidneys: 1.1 ± 0.1
  SUV liver: 4.7 ± 0.7
  SUV lungs: 0.7 ± 0.1
  SUV pancreas: 0.8 ± 0.0
  SUV spleen: 0.5 ± 0.0
[7]; male, NMRI, 30 min
  % ID bladder + urine: 1.7 ± 0.3 % ID
  % ID blood: 1.2 ± 0.1 % ID
  % ID bone: 1.6 ± 0.5 % ID
  % ID brain: 0.3 ± 0.1 % ID
  % ID heart: 0.1 ± 0.0 % ID
  % ID intestines: 56.2 ± 5.4 % ID
  % ID kidneys: 1.0 ± 0.2 % ID
  % ID liver: 17.3 ± 6.7 % ID
  % ID lungs: 0.2 ± 0.0 % ID
  % ID pancreas: 0.2 ± 0.1 % ID
  % ID spleen: 0.1 ± 0.0 % ID
  % ID stomach: 0.8 ± 1.0 % ID
  SUV blood: 0.2 ± 0.0
  SUV bone: 0.1 ± 0.0
  SUV brain: 0.2 ± 0.0
  SUV heart: 0.4 ± 0.1
  SUV kidneys: 0.6 ± 0.1
  SUV liver: 3.7 ± 1.4
  SUV lungs: 0.4 ± 0.1
  SUV pancreas: 0.4 ± 0.1
  SUV spleen: 0.5 ± 0.3
[7]; male, NMRI, 60 min
  % ID blood: 1.0 ± 0.3 % ID
  % ID bone: 2.2 ± 0.3 % ID
  % ID brain: 0.1 ± 0.0 % ID
  % ID heart: 0.1 ± 0.0 % ID
  % ID kidneys: 0.7 ± 0.3 % ID
  % ID liver: 10.2 ± 5.2 % ID
  % ID lungs: 0.1 ± 0.0 % ID
  % ID pancreas: 0.1 ± 0.0 % ID
  % ID spleen: 0.03 ± 0.01 % ID
  % ID stomach: 4.4 ± 5.1 % ID
  SUV blood: 0.1 ± 0.0
  SUV bone: 0.2 ± 0.0
  SUV brain: 0.1 ± 0.0
  SUV heart: 0.3 ± 0.0
  SUV kidneys: 0.5 ± 0.1
  SUV lungs: 0.3 ± 0.1
  SUV pancreas: 0.3 ± 0.1
  SUV spleen: 0.5 ± 0.1
[7]
  accumulation in the spleen: no accumulation
